Results on three compounds are retold here after patent US9920056B2, “2-oxo-1,3,8-triazaspiro[4.5]decan-3-yl] carboxylic acid derivatives” (Eli Lilly and Company, priority 2015, dated 2018).

What is called Ki is a measure of affinity in units of concentration, obtained from inhibition or displacement. The low end stands for a stronger hold on the target, the high end for a looser hold on the target. The IC50 is the concentration that gives 50% inhibition.

One experiment deals with T1, mouse SSTR5 (Mus musculus, UniProt O08858).
T1 construct: expressed in transfected cells; host or cells: probably CHO ('CHO-SSTR5 receptors')
T1 sequence (O08858 1-362): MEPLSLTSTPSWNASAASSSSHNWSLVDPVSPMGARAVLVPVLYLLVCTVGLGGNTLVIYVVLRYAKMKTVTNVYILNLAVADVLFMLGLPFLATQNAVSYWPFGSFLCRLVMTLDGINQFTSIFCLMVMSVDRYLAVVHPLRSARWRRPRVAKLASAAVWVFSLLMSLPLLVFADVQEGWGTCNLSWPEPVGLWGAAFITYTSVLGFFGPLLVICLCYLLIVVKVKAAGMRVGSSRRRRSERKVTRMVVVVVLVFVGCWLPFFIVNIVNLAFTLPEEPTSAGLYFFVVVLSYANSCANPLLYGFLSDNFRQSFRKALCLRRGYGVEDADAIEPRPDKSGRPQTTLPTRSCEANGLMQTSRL
The experiment can be described thus: Somatostatin binding assay (SPA, 125I-Somatostatin 14), mouse SSTR5 membranes. The conditions noted are these: transiently expressed mouse SSTR5 membranes, 0.25 nM [125I]-Somatostatin 14. On the procedure: (§1) The antagonistic effect of the compound of Example 2 can be evaluated in human and mouse SSTR5 binding assays utilizing a scintillation proximity assay (SPA) format for a concentration response curve (CRC) (^125I-Somatostatin 14 binding to CHO-SSTR5 receptors). Perform measurement of SSTR5 binding utilizing either human somatostatin 5 membranes (manufactured by Perkin Elmer (ES-522-M400UA)) at a concentration of 0.4 μg/well or transiently expressed mouse SSTR5 membranes (generated in-house using Lipofectamine 2000 according to the manufacture's protocol (Life Technologies)) at a concentration of 8 μg/well. Homogenize membranes or dilute in buffer (prepare buffer from 25 mM HEPES (manufactured by HyClone), 5 mM MgCl2 (manufactured by Sigma), 1 mM CaCl2 (manufactured by Sigma), 0.5% BSA, pH 7.4 (manufactured by Gibco)).

Experiment [1] has as its system male c57BL/6 mice. Nature of the experiment: GLP-1 secretion in vivo, 12 hour PK/PD study. Set-up: species or system mouse. The conditions noted are these: for Active GLP-1 AUC Fold Increase: vs vehicle. The procedure:
Use male c57BL/6 mice from Harlan Laboratories at 8-9 weeks of age to evaluate the effects of the compound of Example 2 on GLP-1 Secretion in vivo during a 12 hour pharmacokinetic/pharmacodynamic (PK/PD) study. Maintain mice under approved Animal Care and Use protocols for Lilly Research Laboratories and house on a 12 hour light cycle from 6 am to 6 pm. The day prior to the evaluation, fast the mice at 6 pm. The following day at 6 am, measure body weight and administer vehicle (HEC 1%/Tween 80 0.25%/Antifoam 0.05%) or the compound of Example 2 alone in vehicle (HEC 1%/Tween 80 0.25%/Antifoam 0.05% suspension). Collect blood samples for measurement of active GLP-1 levels and plasma exposure (˜150 μl into EDTA coated Sarstedt Microvette® CB300 K2E tubes) at 0.25, 0.5, 1, 2, 4, 6, 9, 12 hours post-administration (only two samples collected from each mouse, euthanizing immediately following the second blood collection) Immediately after collecting the blood, preserve active GLP-1 samples with 5 μl of a mixture of DPP4 inhibitor (Bio Trend Cat. No. DPP-4)/aprotinin (Fisher BioReagents, Cat. No. BP250310), store on wet ice, spin down (3500 rpm, 4° C.). Draw off plasma, plate and freeze. Store GLP-1 samples at −80° C. until they can be analyzed utilizing a Meso Scale Discovery Active GLP-1 (v2) Kit (Cat. No. K150JWC-2). Calculate area under the curve (AUC) values.

Experiment [2] has as its target T2, hSSTR5 (Homo sapiens, UniProt P35346). Nature of the experiment: β-Arrestin whole cell functional assay (PathHunter CHO-K1 hSSTR5 β-arrestin cells). Set-up: host or cells: CHO-K1 (PathHunter engineered line). Conditions: EC80 agonist 37.5 nM SST14. It is filed as cell-based. On the procedure:
A β-arrestin whole cell, functional assay, utilizing U20S cells (human osteosarcoma cells), can directly measure effects of the compound of Example 2 on GPCR activity by determining its effects on the interaction of β-arrestin with the activated GPCR. Perform the CRC measurement of β-arrestin activity utilizing PathHunter CHO-K1 hSSTR5 β-arrestin cells from DiscoveRx (93-0402C2). Plate cells at a concentration of 5K/well in 50 μl of assay plating media in 384-well White Plates with opaque bottom (manufactured by Corning (3570)) and incubate overnight at 37° C./5% CO2. Prepare test solutions by diluting 3 μl of Example 2 with 27 μl of DMSO for a step down dilution. Mix the diluted plate of the current invention on a plate shaker for five minutes. Wash cells with 50 μl of PBS (manufactured by HyClone) three times using a plate washer. After washing, use a Wellmate to add 15 μl of assay buffer (assay buffer prepared from HBSS (manufactured by HyClone), 20 mM HEPES (manufactured by HyClone) with 0.1% BSA (manufactured by Gibco)) to the cells followed by 100 nl of the present invention serial dilution. Incubate the cells at 37° C./5% CO2 for 30 min.

For experiment [3], the target named is T2, hSSTR5. The experiment can be described thus: Somatostatin binding assay (SPA, 125I-Somatostatin 14), human SSTR5 membranes. Set-up: purchased Perkin Elmer ES-522-M400UA; host or cells: CHO (the text speaks of CHO-SSTR5 receptors). The conditions noted are these: human somatostatin 5 membranes, 0.25 nM [125I]-Somatostatin 14. The procedure:
as §1

The test system of experiment [4] is male c57BL/6 mice. The experiment can be described thus: Oral Glucose Tolerance Test (OGTT): glucose and active GLP-1. Type of experiment: in vivo, mouse. Conditions: for Active GLP-1 Fold Increase / Glucose % Lowering: vs vehicle. On the procedure:
Maintain mice under approved Animal Care and Use protocols for Lilly Research Laboratories and house on a 12 hour light cycle from 6 am to 6 pm. For the OGTT, fast the mice between 3 & 4 pm. The following day at 6 am, measure body weights and collect baseline blood samples via tail vein for glucose (Roche Aviva glucometer). […] No. […] No. DPP-4)/aprotinin (Fisher BioReagents, Cat. No. BP250310), store on wet ice, spin down (3500 rpm, 4° C.), draw off plasma, plate and freeze. […] No. […]-2). Calculate area under the curve (AUC) values.

The mark [5] stands for this setting: Example 1 0.3 mg/kg orally 90 min before glucose bolus.
Where [6] appears, read: Example 1 30 mg/kg orally 90 min before glucose bolus.
[7] abbreviates: Sitagliptin 10 mg/kg orally 90 min before glucose bolus.

T2 sequence (P35346 whole entry): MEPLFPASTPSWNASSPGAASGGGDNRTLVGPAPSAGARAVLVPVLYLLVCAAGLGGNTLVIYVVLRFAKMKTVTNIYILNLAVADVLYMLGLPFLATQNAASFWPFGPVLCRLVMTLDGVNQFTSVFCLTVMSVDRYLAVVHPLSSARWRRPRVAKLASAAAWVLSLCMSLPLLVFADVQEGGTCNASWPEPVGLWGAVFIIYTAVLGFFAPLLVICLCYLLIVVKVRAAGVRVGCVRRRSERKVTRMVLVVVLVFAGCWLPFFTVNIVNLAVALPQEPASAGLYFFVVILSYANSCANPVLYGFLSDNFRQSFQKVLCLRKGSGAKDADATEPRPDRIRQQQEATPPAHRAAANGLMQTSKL

For `CCOc1cc(CN2CCC3(CC2)CN(c2ccc(C(=O)O)cc2)C(=O)N3)c(C2CC2)cc1C` [Example 2, 4-[8-[(2-Cyclopropyl-5-ethoxy-4-methyl-phenyl)methyl]-2-oxo-1,3,8-triazaspiro[4.5]decan-3-yl]benzoic acid hydrate], the Ki at mouse SSTR5 is 4.87 nM; at hSSTR5 [3], 0.54 nM. Further, the “Active GLP-1 AUC (0-12 hours)” value in the experiment on male c57BL/6 mice [1] (0.3 mg/kg, fasted mice) was determined as 60.2 ± 2.9 pg/mL-hour; in the experiment with male c57BL/6 mice [1] (1 mg/kg, fasted mice), 71.2 ± 3.3 pg/mL-hour; with male c57BL/6 mice [1] (3 mg/kg, fasted mice) it was 72.5 ± 4.3 pg/mL-hour; in the experiment with male c57BL/6 mice [1] (10 mg/kg, fasted mice), 87.3 ± 3.8 pg/mL-hour; in the experiment with male c57BL/6 mice [1] (30 mg/kg, fasted mice), 86.3 ± 4.6 pg/mL-hour. Besides, the “Active GLP-1 AUC Fold Increase” value stood at 1.9 with male c57BL/6 mice [1] (0.3 mg/kg); 2.2 with male c57BL/6 mice [1] (1 mg/kg); 2.3 in the experiment with male c57BL/6 mice [1] (3 mg/kg); 2.7 in the experiment on male c57BL/6 mice [1] (10 mg/kg); 2.7 with male c57BL/6 mice [1] (30 mg/kg). Besides, the “effect on active GLP-1 (in words)” value in the experiment on male c57BL/6 mice [1] (fasted mice, no glucose load) is reported as “non-glucose dependent effect to increase active GLP-1”. Besides, the IC50 on hSSTR5 [2] was 0.81 nM.
With `CCOc1cc(CN2CCC3(CC2)CN(c2ccc(C(=O)O)cc2)C(=O)N3)c(C2CC2)cc1C.Cl` [Example 1, 4-[8-[(2-Cyclopropyl-5-ethoxy-4-methyl-phenyl)methyl]-2-oxo-1,3,8-triazaspiro[4.5]decan-3-yl]benzoic acid hydrochloride], in the experiment on male c57BL/6 mice [4] (setting [5]), the “Active GLP-1 AUC (0-60 min)” value worked out at 93.2 ± 15.5 pg/mL-min and the “Glucose AUC (0-60 min)” value stood at 7441 ± 612 mg·min/dL. In the experiment on male c57BL/6 mice [4] (Example 1 0.3 mg/kg orally), the “Active GLP-1 Fold Increase” value stood at 1.8 and the “Glucose % Lowering” value came to 23%. In the experiment on male c57BL/6 mice [4] (setting [6]), the “Active GLP-1 AUC (0-60 min)” value is 151 ± 14.0 pg/mL-min and the “Glucose AUC (0-60 min)” value was 5674 ± 360 mg·min/dL. For the same compound, in the experiment on male c57BL/6 mice [4] (Example 1 30 mg/kg orally), the “Active GLP-1 Fold Increase” value is listed as 2.9 and the “Glucose % Lowering” value is listed as 41%. Besides, in the experiment with male c57BL/6 mice [4] (OGTT in mice), the “effect on GLP-1 in OGTT (in words)” value is recorded as “increased GLP-1 activity” and the “effect on glucose in OGTT (in words)” value is listed as “glucose lowering effect”.
For the compound `N[C@@H](CC(=O)N1CCn2c(nnc2C(F)(F)F)C1)Cc1cc(F)c(F)cc1F` [Sitagliptin, sitagliptin, reference compound], in the experiment with male c57BL/6 mice [4] (setting [7]), the “Active GLP-1 AUC (0-60 min)” value was 343 ± 73 pg/mL-min and the “Glucose AUC (0-60 min)” value was 5308 ± 237 mg·min/dL. Further, in the experiment on male c57BL/6 mice [4] (Sitagliptin 10 mg/kg orally), the “Active GLP-1 Fold Increase” value came out at 6.6 and the “Glucose % Lowering” value is listed as 45%.
